These are literature values, as cited in patent US20020022622A1, “Thiazole, imidazole and oxazole compounds and treatments of disorders associated with protein aging” (priority 2000, published 2002).

Data set [1] relates to glomerular basement membrane thickness. As to conditions: streptozotocin-diabetic rat model.
Data set [2] deals with immunoglobulin trapping in the kidney. As to conditions: in vivo.
Data set [3] concerns aortic wall protein cross-linking. As to conditions: diabetic rats.
The test system of a further data set is red blood cells. As to conditions: in vivo.

Turning to `N=C(N)NN` [aminoguanidine], the “increased glomerular basement membrane thickness” value in data set [1] is “prevented”. Moreover, the “immunoglobulin trapping in the kidney” value in data set [2] was “reduction”. In data set [3], the “aortic wall protein cross-linking” value was “diminishes”. Besides, the “diabetes-induced changes in the deformability of red blood cells” value in the data set with red blood cells is on record as “prevent”.
